System: Geobacillus stearothermophilus spores (ATCC 7953)
Experiment: Fluorescence of enzyme substrates in culture media with Geobacillus stearothermophilus spores (96-well plate, 60° C.)
Format: cell-based
Conditions: for MEASURED FLUORESCENCE, RFU 10 Sec / MEASURED FLUORESCENCE, RFU +5 min / MEASURED FLUORESCENCE, RFU +10 min / MEASURED FLUORESCENCE, RFU +30 min / MEASURED FLUORESCENCE, RFU 10 sec: substrate 0.3 mg/mL, 60° C.; for fluorescent signal in the presence of Geobacillus stearothermophilus spores compared with MUG and 8F-MUG: high and low spore levels, two low pH levels, MUG also at its optimal pH of 8.0
Experimental: Culture media was prepared by dissolving by dissolving 2 g/L phytone peptone (BD BBL 211906) and 0.2 g/L L-alanine (Sigma 05129) in deionized water. 1N NaOH or 0.1 N HCl were used to adjust pH, and media were brought to volume and filter sterilizing using a 0.22 micron polyethersulfone (PES) filter. Stock solutions (25 mg/ml) of 6′-chloro-4′-methylumbelliferyl-a-D-glucopyranoside, 8′-chloro-4′-methylumbelliferyl-a-D-glucopyranoside, 8′-fluoro-4′-methylumbelliferyl-a-D-glucopyranoside, and 4-methylumbelliferyl-a-D-glucopyranoside were prepared in DMSO. The fluorogenic a-glucosidase substrates were added to culture media at a final concentration of 0.3 mg/ml.
(§1) Culture media (pH 6.7) containing 6′-chloro-4′-methylumbelliferyl α-D-glucopyranoside (0.3 mg/mL) was each added to eight wells (100 microliters per well) of a black 96-well microtiter plate with (NUNC #165301, Thermo Fisher Scientific, Waltham, Massachusetts). A 5-microliter aqueous suspension containing 5×10^3 Geobacillus stearothermophilus spores (ATCC 7953) was added to 4 of the wells for each medium in the microtiter plate. […] The top of the plate was covered with an optically clear sealing film (product #4311971, Applied Biosystems Corporation, Foster City, California). The plate was warmed at 60° C. and shaken in a linear direction. Fluorescence readings (360 nm excitation/450 nm emission at 50% gain) were taken from the bottom of the plate. A reading was taken at an initial time point of 10 seconds and then at +1-minute intervals thereafter. A Synergy Neo2 fluorescence plate reader (BioTek Company, Winooski, Vermont) was used. In Table 1, the mean fluorescence values detected (RFU) at times of 10 seconds, +5 minutes, +10 minutes, and +30 minutes are reported. The mean fluorescence values detected for the control wells were 511 RFU at 10 seconds; 426 RFU at +5 minutes: 373 RFU at +10 minutes, and 310 RFU at +30 minutes.
as §1, with “(pH 7.0)” for “(pH 6.7)”, “Table 2,” for “Table 1,”, “were 512” for “were 511”, “seconds; 417” for “seconds; 426”, “+5 minutes; 363” for “+5 minutes: 373”, “and 308” for “and 310”
Culture media (pH 6.7) containing 6′-chloro-4′-methylumbelliferyl α-D-glucopyranoside (0.3 mg/mL) was each added to eight wells (100 microliters per well) of a black 96-well microtiter plate with (NUNC #165301, Thermo Fisher Scientific, Waltham, Massachusetts). A 5-microliter aqueous suspension containing 5×10^5 Geobacillus stearothermophilus spores (ATCC 7953) was added to 4 of the wells for each medium in the microtiter plate. […] The top of the plate was covered with an optically clear sealing film (product #4311971, Applied Biosystems Corporation, Foster City, California). The plate was warmed at 60° C. and shaken in a linear direction. Fluorescence readings (360 nm excitation/450 nm emission at 50% gain) were taken from the bottom of the plate. […]

[1] = 5 × 10^3 spores, culture media pH 6.7, 360 nm ex/450 nm em
[2] = 5 × 10^3 spores, culture media pH 6.7
[3] = 5 × 10^3 spores, culture media pH 7.0
[4] = 5 × 10^5 spores, culture media pH 6.7
[5] = 5 × 10^5 spores, culture media pH 7.0
[6] = 5 × 10^3 spores, culture media pH 8.0
[7] = 5 × 10^5 spores, culture media pH 8.0

Row | SMILES | MEASURED FLUORESCENCE, RFU 10 Sec [1] | MEASURED FLUORESCENCE, RFU +5 min [2] | MEASURED FLUORESCENCE, RFU +10 min [2] | MEASURED FLUORESCENCE, RFU +30 min [2] | MEASURED FLUORESCENCE, RFU 10 Sec [3] | MEASURED FLUORESCENCE, RFU +5 min [3] | MEASURED FLUORESCENCE, RFU +10 min [3] | MEASURED FLUORESCENCE, RFU +30 min [3] | MEASURED FLUORESCENCE, RFU 10 sec [4] | MEASURED FLUORESCENCE, RFU +5 min [4] | MEASURED FLUORESCENCE, RFU +10 min [4] | MEASURED FLUORESCENCE, RFU +30 min [4] | MEASURED FLUORESCENCE, RFU 10 sec [5] | MEASURED FLUORESCENCE, RFU +5 min [5] | MEASURED FLUORESCENCE, RFU +10 min [5] | MEASURED FLUORESCENCE, RFU +30 min [5] | fluorescent signal in the presence of Geobacillus stearothermophilus spores compared with MUG and 8F-MUG | further results
1 | Cc1cc(=O)oc2cc(O[C@H]3O[C@H](CO)[C@@H](O)[C@H](O)[C@H]3O)c(Cl)cc12 [Example 1, 6′-chloro-4′-methylumbelliferyl α-D-glucopyranoside] | 1013 RFU | 2251 RFU | 4622 RFU | 12582 RFU | 1226 RFU | 2377 RFU | 4424 RFU | 11941 RFU | 17227 RFU | 53202 RFU | 79375 RFU | 98077 RFU | 18386 RFU | 53621 RFU | 81061 RFU | 99019 RFU | higher fluorescent signal | –
2 | Cc1cc(=O)oc2c(Cl)c(O[C@H]3O[C@H](CO)[C@@H](O)[C@H](O)[C@H]3O)ccc12 [Example 2, 8′-chloro-4′-methylumbelliferyl α-D-glucopyranoside] | 1164 RFU | 3013 RFU | 6278 RFU | 15253 RFU | 1500 RFU | 3370 RFU | 6612 RFU | 16521 RFU | 21302 RFU | 56949 RFU | 73987 RFU | 81560 RFU | 21883 RFU | 58454 RFU | 77112 RFU | 83010 RFU | higher fluorescent signal | –
3 | Cc1cc(=O)oc2c(F)c(O[C@H]3O[C@H](CO)[C@@H](O)[C@H](O)[C@H]3O)ccc12 [Example 8F-MUG, 8′-fluoro-4′-methylumbelliferyl α-D-glucopyranoside, reference compound] | 693 RFU | 1422 RFU | 2869 RFU | 8410 RFU | 777 RFU | 1573 RFU | 3153 RFU | 9038 RFU | 8975 RFU | 31069 RFU | 50175 RFU | 67041 RFU | 8171 RFU | 34178 RFU | 56663 RFU | 70392 RFU | – | –
4 | Cc1cc(=O)oc2cc(O[C@H]3O[C@H](CO)[C@@H](O)[C@H](O)[C@H]3O)ccc12 [MUG, 4′-methylumbelliferyl-α-D-glucopyranoside, reference compound] | 430 RFU | 403 RFU | 464 RFU | 991 RFU | – | – | – | – | 895 RFU | 3260 RFU | 8049 RFU | 29586 RFU | – | – | – | – | – | MEASURED FLUORESCENCE, RFU 10 Sec [6]: 540 RFU; MEASURED FLUORESCENCE, RFU +5 min [6]: 658 RFU; MEASURED FLUORESCENCE, RFU +10 min [6]: 993 RFU; MEASURED FLUORESCENCE, RFU +30 min [6]: 2891 RFU; MEASURED FLUORESCENCE, RFU 10 sec [7]: 2644 RFU; MEASURED FLUORESCENCE, RFU +5 min [7]: 12059 RFU; MEASURED FLUORESCENCE, RFU +10 min [7]: 29277 RFU; MEASURED FLUORESCENCE, RFU +30 min [7]: 75861 RFU
